Reference: ChEMBL document CHEMBL1139519, “Are L-adenosine and its derivatives substrates for S-adenosyl-L-homocysteine hydrolase?” (J Med Chem, 2005)
pKi: −log10 of the molar value. Active and inactive are the calls of the source. The calls are words filed in the database; no cut-off is given here.

Columns and labels:
Adenosylhomocysteinase [1] = molecular target: T1, Adenosylhomocysteinase (Homo sapiens, UniProt P23526); assay: Inhibitory potency against recombinant human placental S-Adenosyl-L-homocysteine Hydrolase
Target sequence in this assay (P23526 whole entry): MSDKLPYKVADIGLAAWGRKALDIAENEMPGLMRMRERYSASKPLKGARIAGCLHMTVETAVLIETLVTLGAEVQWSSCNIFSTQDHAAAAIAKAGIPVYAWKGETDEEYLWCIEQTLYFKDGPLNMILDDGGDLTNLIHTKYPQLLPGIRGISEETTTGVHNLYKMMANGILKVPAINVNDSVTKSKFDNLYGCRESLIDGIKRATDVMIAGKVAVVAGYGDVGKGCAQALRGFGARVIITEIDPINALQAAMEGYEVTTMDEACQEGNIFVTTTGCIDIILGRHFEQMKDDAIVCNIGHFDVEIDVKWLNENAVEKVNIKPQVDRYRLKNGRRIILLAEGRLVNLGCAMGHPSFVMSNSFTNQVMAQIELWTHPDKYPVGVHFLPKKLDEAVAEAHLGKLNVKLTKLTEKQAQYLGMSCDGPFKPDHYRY

Adenosylhomocysteinase [2] = molecular target: T1, Adenosylhomocysteinase
Target sequence in this assay (P23526 2-432 limits assumed): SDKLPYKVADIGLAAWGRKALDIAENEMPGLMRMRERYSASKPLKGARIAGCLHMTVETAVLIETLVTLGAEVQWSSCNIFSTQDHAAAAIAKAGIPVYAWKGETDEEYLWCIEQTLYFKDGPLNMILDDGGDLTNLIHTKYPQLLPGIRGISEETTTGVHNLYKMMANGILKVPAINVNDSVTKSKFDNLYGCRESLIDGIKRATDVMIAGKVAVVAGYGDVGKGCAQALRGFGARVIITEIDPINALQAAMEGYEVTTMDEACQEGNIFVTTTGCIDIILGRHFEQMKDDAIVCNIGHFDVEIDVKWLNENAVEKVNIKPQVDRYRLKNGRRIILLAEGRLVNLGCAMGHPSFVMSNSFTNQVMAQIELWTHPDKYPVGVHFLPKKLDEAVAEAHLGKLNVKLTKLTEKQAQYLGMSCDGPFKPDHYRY
Description: Inhibitory potency against recombinant human placental S-Adenosyl-L-homocysteine Hydrolase at 200 uM

Adenosylhomocysteinase [3] = molecular target: T1, Adenosylhomocysteinase; remark: listed apart in the source
Target sequence in this assay (P23526 2-432 limits assumed): as above
Description: Inactivation constant against recombinant human placental S-Adenosyl-L-homocysteine Hydrolase

Q: What does the source list for `Nc1ncnc2c1ncn2[C@H]1OC(/C=N/O)C(O)[C@@H]1O` (single isomer, unassigned)?
A: pKi (Adenosylhomocysteinase [1]): 6.17; Inhibitory potency (Adenosylhomocysteinase [2]): inactive; Kinact (Adenosylhomocysteinase [3]): 0.16 min⁻¹

Q: With `Nc1ncnc2c1ncn2C1O[C@H](CO)[C@@H](O)[C@H]1O` (single isomer, unassigned) as the compound, how does the Inhibitory potency (Adenosylhomocysteinase [2]) read?
A: inactive
